Source: patent publication US20090291857A1, “METHODS TO IDENTIFY INHIBITORS OF THE UNFOLDED PROTEIN RESPONSE” (THE BOARD OF TRUSTEES OF THE LELAND STANFORD JUNIOR …, priority 2006, published 2009)

Test system: HT1080 cells
Assay: Clonogenic survival / colony formation assay, HT1080
Type: cell-based, human
Conditions: 2.5 μM
Procedure: Several of the candidate irestatins were tested in a hypoxia clonogenic survival assay. […] HT1080 fibrosarcoma cells stably were treated with 1 uM of the indicated irestatin or left untreated, and incubated in hypoxia (0.01% oxygen) for 48 hrs at 37° C. Cells were harvested and counted, and allowed to form colonies under normal oxygen tension. Survival rate is expressed as the fraction of colonies formed divided by the total number of cells seeded for each condition. For all experiments, cells were plated in triplicate, and all experiments were repeated at least three times. These experiments were repeated using MiaPaCa2 cells in place of the HT 1080 fibrosarcoma cells.
For hypoxia survival assays, cells were grown in 60 mm dishes until reaching at 50-70% confluence and shifted to hypoxia (0.1% O2) for 48 hrs. Cells were trypsinized, counted using a hemocytometer, and replated in triplicate at 1,000-20,000 cells per plate in normal culture medium. After 10-12 days of growth under normal oxygen conditions, colonies were stained with 0.2% crystal violet in ethanol and counted. Survival values are expressed as the number of colonies divided by the total number of cells seeded for each condition, normalized to the plating efficiency under normal oxygen conditions. […]
A. Effect of irestatin 9389 on PERK and ATF6 pathways. […] D. Quantification of clonogenic survival assay. […]

`Cc1csc(NC(=O)CSc2nc3c(c(C(F)(F)F)c2C#N)CCC3)n1` [Compound 9389] was tested, and the “colony formation after hypoxia” value (hypoxia 48 hours) was “strongly inhibited colony formation” and the “survival of HT1080 cells under normal oxygen” value (normal oxygen conditions) was “negligible effect”.
